Results from PMC6302903, “Protein and Chemical Determinants of BL-1249 Action and Selectivity for K2P Channels” (ACS Chemical Neuroscience, 2018).

Experiments:
K2P18.1(TRESK) = system: K2P18.1(TRESK); parameters: method as in PMID 27641472; settings: cited from earlier work
K2P2.1(TREK-1)Δ322 = target: T1, K2P2.1(TREK-1)Δ322 (Mus musculus, UniProt P97438); experiment: TEVC of C-terminal truncation at residue 322; format: cell-based; settings: Xenopus oocytes, saturation not reached, fit with upper boundary of 15 (I/I0)
T1 construct: truncations at residue 322, K2P2.1(TREK-1)Δ322, equivalent to a previously described mutant called Δ89; expressed in transfected cells; host or cells: Xenopus laevis oocytes, mRNA injected
T1 sequence (P97438 1-322 isoform P97438-2): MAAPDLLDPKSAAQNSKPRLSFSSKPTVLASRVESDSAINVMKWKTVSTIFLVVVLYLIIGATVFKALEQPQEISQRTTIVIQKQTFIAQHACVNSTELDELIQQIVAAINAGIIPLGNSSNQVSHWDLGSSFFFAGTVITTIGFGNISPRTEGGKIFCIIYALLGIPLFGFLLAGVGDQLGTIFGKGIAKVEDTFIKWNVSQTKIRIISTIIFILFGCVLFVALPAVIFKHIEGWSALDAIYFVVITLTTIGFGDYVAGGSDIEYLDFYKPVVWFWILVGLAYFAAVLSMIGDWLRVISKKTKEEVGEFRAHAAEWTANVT
Description: Constructs for murine K2P channels, including K2P2.1(TREK-1) (Gene ID 16526), K2P10.1(TREK-2) (Gene ID 72258), K2P4.1(TRAAK) (Gene ID 16528), K2P5.1(TASK-2) (Gene ID 16529), K2P3.1(TASK-1) (Gene ID 16527), K2P9.1(TASK-3) (Gene ID 223604), and K2P18.1(TRESK) (Gene ID 332396) in pGEMHE/pMO, were used for Xenopus oocyte experiments as previously described.[10],[26] Murine K2P2.1(TREK-1) (Gene ID 16526) was expressed in HEK-293 cells using a pIRES-EGFP construct as previously described.[26] Murine K2P13.1(THIK-1) (Gene ID 217826) and K2P1.1(TWIK-1) (Gene ID 16525) were cloned into pGEMHE/pMO for use in Xenopus oocytes. […]
(§1) Xenopus laevis oocytes were harvested in accordance with UCSF IACUC protocol AN129690 and digested in calcium-free ND-96 (96 mM NaCl, 2 mM KCl, 3.8 mM MgCl2) immediately following harvest, as previously described.[6],[10] […] Defolliculated stage V–VI oocytes were injected with 0.2–6.0 ng of mRNA in 50 nL, and currents were recorded 24–48 h after injection. mRNA was synthesized from plasmid DNA using mMessage mMachine Kit (T7 promoter, Ambion, Life Technologies) and purified using RNEasy Kit (Qiagen). […] Once stabilized basal currents were recorded, compounds were perfused at various concentrations in standard ND96 and currents were allowed to increase to stabilization before recording final current. […]

K2P2.1(TREK-1) G137I = target: T2, K2P2.1(TREK-1) G137I (Mus musculus, UniProt P97438, G152I); experiment: TEVC of C-type gate activating mutant G137I; format: cell-based; settings: Xenopus oocytes
T2 construct: expressed in transfected cells; host or cells: Xenopus laevis oocytes, mRNA injected
T2 sequence (P97438 1-411 isoform P97438-2 G137I): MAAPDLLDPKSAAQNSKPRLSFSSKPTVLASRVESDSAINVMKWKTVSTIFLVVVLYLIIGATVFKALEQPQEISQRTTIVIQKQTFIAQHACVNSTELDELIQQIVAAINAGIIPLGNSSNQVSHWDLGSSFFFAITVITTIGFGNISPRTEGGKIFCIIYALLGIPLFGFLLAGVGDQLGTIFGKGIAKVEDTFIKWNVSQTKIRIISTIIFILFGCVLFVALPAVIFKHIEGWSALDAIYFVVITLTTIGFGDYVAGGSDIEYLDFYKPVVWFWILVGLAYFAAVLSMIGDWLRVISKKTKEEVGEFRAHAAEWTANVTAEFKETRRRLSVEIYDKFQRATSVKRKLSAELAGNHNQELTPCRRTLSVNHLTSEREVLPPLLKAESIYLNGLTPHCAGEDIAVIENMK
Description: Diverse types of physical and chemical stimuli activate K2P2.1(TREK-1) by stabilizing the C-type gate and switching the channel into a “leak” mode that is characterized by a loss of outward rectification of the potassium current.[6],[8] Accordingly, we used inside-out patch clamp experiments of K2P2.1(TREK-1) expressed in HEK293 cells to test whether BL-1249 acts on the C-type gate. […] Together with previous single point concentration studies showing the insensitivity of K2P2.1(TREK-1) W275S in mammalian cells,[40] our data provide definitive evidence that BL-1249 activates K2P2.1(TREK-1) by stimulating the C-type gate. […]
as §1

K2P9.1(TASK-3) = target: T3, K2P9.1(TASK-3) (Mus musculus, UniProt Q3LS21); experiment: TEVC of K2P9.1(TASK-3) in Xenopus oocytes; format: cell-based; settings: concentrations up to the solubility limit (∼80 μM)
T3 construct: expressed in transfected cells; host or cells: Xenopus laevis oocytes (mRNA injection, pGEMHE/pMO)
T3 sequence (Q3LS21 whole entry): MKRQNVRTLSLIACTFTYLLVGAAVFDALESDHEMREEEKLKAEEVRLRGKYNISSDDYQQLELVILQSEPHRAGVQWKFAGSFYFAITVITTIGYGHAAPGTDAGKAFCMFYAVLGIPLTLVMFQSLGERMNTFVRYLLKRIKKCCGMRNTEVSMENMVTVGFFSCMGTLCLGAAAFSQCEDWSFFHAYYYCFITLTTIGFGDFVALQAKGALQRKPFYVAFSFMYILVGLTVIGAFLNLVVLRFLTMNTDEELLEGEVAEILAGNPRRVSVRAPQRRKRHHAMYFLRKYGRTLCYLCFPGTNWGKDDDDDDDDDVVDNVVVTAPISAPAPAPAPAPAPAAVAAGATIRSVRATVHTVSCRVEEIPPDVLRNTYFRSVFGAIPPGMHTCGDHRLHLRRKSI
Protocol: BL-1249 activates K2P2.1(TREK-1)[18],[40] and K2P10.1(TREK-2),[7] but its effects on other K2P channels have not been characterized. […] In order to test if the original 10 μM assay had missed BL-1249 effects in other K2P channels, we tested concentrations of BL-1249 up to the solubility limit (∼80 μM) against the other K2P subfamily representatives. […]
as §1, with “current. Fold activation upon compound application is expressed as I/I0 (0 mV), derived from the current at 0 mV in the presence of compound divided by the basal current at 0 mV in standard ND96 without compound. Data were analyzed and plotted using Graphpad Prism Version 5 (GraphPad Software, San Diego California USA, www.graphpad.com).” for “current.”

EC50 (K2P2.1(TREK-1)Δ322): 26 ± 8 µM
EC50 (K2P2.1(TREK-1) G137I): > 60 µM
sensitivity of K2P2.1(TREK-1) G137I to compound (K2P2.1(TREK-1) G137I): insensitive
activation of K2P9.1(TASK-3) (K2P9.1(TASK-3)): failed to find evidence for activation
Compound: c1ccc(-c2nnn[nH]2)c(Nc2cccc3c2CCCC3)c1 [BL-1249, (5,6,7,8-tetrahydro-naphthalen-1-yl)-[2-(1H-tetrazol-5-yl)-phenyl]-amine]
functional effect on K2P18.1(TRESK) (K2P18.1(TRESK)): activator
